Structures are written as SMILES.

A short description of this experiment: Antioxidant activity after 1 hr by cytochrome-c reduction assay. The class given is functional. On the set-up: scale not given: the % may be the effect or the level left.
Regarding `CC(=O)c1cccc(O[C@H]2O[C@H](CO)[C@@H](O)[C@H](O)[C@@H]2O)c1`, the Activity stood at 66.9%.
Compound `CC(=O)c1cccc(O)c1` had an Activity of 0%.
In turn, `CC(=O)c1cccc(O[C@@H]2O[C@H](CO)[C@@H](O)[C@H](O)[C@H]2O)c1` returned an Activity of 51.7%.
Compound `CC(=O)c1cccc(O[C@@H]2O[C@H](CO)[C@@H](O)[C@H](O)[C@@H]2O)c1` returned an Activity of 71.5%.

(Values after ChEMBL document CHEMBL1145591, “Synthesis of new UV-B light absorbents: (Acetylphenyl)glycosides with antioxidant activities” (Bioorg Med Chem Lett, 2008).)
